US20030105010A1, “Crystals and structures of ArnB aminotransferases” (priority 2001, published 2003)

Key:
[1] = molecular target: T1, Salmonella typhimurium ArnB (Salmonella typhimurium, UniProt Q8ZNF3); assay: ArnB aminotransfer half-reaction assay (absorbance of PMP/PLP cofactor forms at 340 nm / 430 nm); type: biochemical; details: for conversion of ArnB from the E-PLP form back to the E•PMP form by amino donor: excess amino acid, decrease at 430 nm and increase at 340 nm; for observed rate constant of aminotransfer from L-methionine to E-PLP ArnB: enzyme concentration 23 μM, L-methionine concentration 20 mM
T1 construct: made in house; host or cells: E. coli BL21 (DE3), vector pSB3 (modified pET26b)
T1 sequence (Q8ZNF3 whole entry): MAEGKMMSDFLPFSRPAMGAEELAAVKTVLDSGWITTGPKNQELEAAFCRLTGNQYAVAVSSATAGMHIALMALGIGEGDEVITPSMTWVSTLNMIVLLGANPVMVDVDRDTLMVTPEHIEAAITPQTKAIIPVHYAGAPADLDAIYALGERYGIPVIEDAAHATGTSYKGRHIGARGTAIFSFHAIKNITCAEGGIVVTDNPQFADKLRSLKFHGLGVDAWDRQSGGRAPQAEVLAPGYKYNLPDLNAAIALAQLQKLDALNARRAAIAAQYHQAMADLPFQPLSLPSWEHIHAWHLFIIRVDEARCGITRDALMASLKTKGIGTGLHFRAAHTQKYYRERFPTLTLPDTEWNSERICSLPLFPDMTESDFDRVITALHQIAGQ
Description: Aminotransfer half-reactions were measured at an enzyme concentration of 23 μM and substrates were added to a final concentration of 250 μM, unless otherwise indicated. Reaction progress was followed by moniotoring the absorbance maxima of the PMP or PLP cofactor forms at 340 nm or 430 nm, respectively. Resulting time courses were fit to eq. 1, describing a single-exponential decay,
Yobs=((Y0−Y∞)e^−kt)+Y∞ (Eq. 1),
where Yobs=observed signal, Y0=signal at time zero, Y∞=signal at infinite time, k is the apparent first-order rate constant, and t is time. Nonlinear least-squares fits were performed with Kaleidagraph v3.51 (Synergy Software, Reading, Pa.).

[2] = molecular target: T1, Salmonella typhimurium ArnB; assay: L-cycloserine inhibition of ArnB followed by cofactor absorbance spectrum; type: biochemical
[3] = molecular target: ArnB from E. coli K12 (Escherichia coli, UniProt P77690); details: compared with L-glutamate; cited from earlier work
Sequence of ArnB from E. coli K12 (P77690 whole entry): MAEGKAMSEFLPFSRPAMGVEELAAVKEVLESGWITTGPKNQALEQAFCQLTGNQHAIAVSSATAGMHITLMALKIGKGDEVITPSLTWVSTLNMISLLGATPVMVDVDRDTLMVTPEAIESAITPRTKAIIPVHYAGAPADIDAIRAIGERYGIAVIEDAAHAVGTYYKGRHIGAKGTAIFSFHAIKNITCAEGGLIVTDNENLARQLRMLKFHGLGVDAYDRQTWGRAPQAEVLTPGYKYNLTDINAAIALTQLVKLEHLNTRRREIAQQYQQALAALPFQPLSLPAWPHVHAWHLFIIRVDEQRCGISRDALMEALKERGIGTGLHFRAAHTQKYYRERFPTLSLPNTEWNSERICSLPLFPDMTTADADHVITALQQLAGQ

SMILES: CSCC[C@@H](N)C(=O)O (single isomer, unassigned) [D-isomer of methionine]
- conversion of ArnB from the E-PLP form back to the E•PMP form by amino donor [1]: no such effect

SMILES: N[C@@H](CC(=O)O)C(=O)O (single isomer, unassigned) [L-isomer of aspartic acid]
- conversion of ArnB from the E-PLP form back to the E•PMP form by amino donor [1]: slower rate than L-methionine

SMILES: N[C@H]1CONC1=O [L-cycloserine]
- reaction with ArnB in the E-PMP form ([2]; E-PMP enzyme form): did not react
- inactivation of E-PLP ArnB ([2]; excess L-cycloserine, loss of 430 nm internal aldimine peak, appearance of peak centered at 334 nm): rapidly inactivated

SMILES: N[C@@H](CCC(=O)O)C(=O)O [L-glutamate]
- conversion of ArnB from the E-PLP form back to the E•PMP form by amino donor [1]: fastest L-amino acid tested

SMILES: NC(=O)CC[C@H](N)C(=O)O [L-glutamine]
- use as amino donor substrate [3]: less efficiently than with L-glutamate

SMILES: CSCC[C@H](N)C(=O)O [L-methionine]
- conversion of ArnB from the E-PLP form back to the E•PMP form by amino donor [1]: readily converted
- observed rate constant of aminotransfer from L-methionine to E-PLP ArnB ([1]; measured at 340 nm): 0.065 ± 0.014 min⁻¹
- observed rate constant of aminotransfer from L-methionine to E-PLP ArnB ([1]; measured at 430 nm): 0.051 ± 0.013 min⁻¹

SMILES: O=C(O)CCCC(=O)C(=O)O [α-Ketoadipate]
- reduction in aminotransfer rate from that of α-ketoglutarate ([1]; E•PMP to E-PLP conversion, absorbance increase at 430 nm, α-ketoacid as amino acceptor substrate): 3 fold
